# Measured values published in ChEMBL document CHEMBL1123701, “Synthesis and quantitative structure-activity relationship analysis of N-triiodoallyl- and N-iodopropargylazoles. New antifungal agents” (1987).
# Experiments:
# Trichophyton benhamiae = assay: Antifungal activity towards Trichophyton mentagrophytes 530324 strain; assay type: functional, Arthroderma benhamiae
# Cryptococcus neoformans = assay: Antifungal activity against Cryptococcus neoformans Cr-1 strain; assay type: functional
# Aspergillus fumigatus = assay: Antifungal activity against Aspergillus fumigatus Saito strain; assay type: functional
# [1] = system: Trichophyton interdigitale; assay: Antifungal activity towards Trichophyton interdigitale; assay type: functional
# Candida albicans = assay: Antifungal activity against Candida albicans C-A-24 strain; assay type: functional
Compound,MIC (Trichophyton benhamiae) [µg/mL],MIC (Cryptococcus neoformans) [µg/mL],MIC (Aspergillus fumigatus) [µg/mL],MIC [1] [µg/mL],MIC (Candida albicans) [µg/mL]
COc1ccc(-c2nnn(CC(I)=C(I)I)n2)cc1,25,> 100,25,> 100,> 100
N#Cc1ccc(-c2nnn(CC#CI)n2)cc1,3.13,50,6.25,1.56,50
O=[N+]([O-])c1c(Cl)c(Cl)n(CC#CI)c1Cc1cc(Cl)cc(Cl)c1O,3.13,3.13,12.5,3.13,25
Cc1cc(C)n(CC#CI)n1,0.78,3.13,0.78,0.78,6.25
O=[N+]([O-])c1c(Cl)c(Cl)n(CC(I)=C(I)I)c1Cc1cc(Cl)cc(Cl)c1O,25,> 25,> 25,25,> 25
Cc1nnnn1CC#CI,3.13,3.13,6.25,3.13,6.25
CC(=O)c1cccn1CC(I)=C(I)I,1.56,> 25,12.5,0.39,12.5
CCc1nnnn1CC(I)=C(I)I,1.56,> 25,25,3.13,> 25
CCOC(=O)c1cn(CC(I)=C(I)I)c(Cl)c1Cl,3.13,25,25,3.13,25
Cc1ccc(-c2nnn(CC(I)=C(I)I)n2)cc1,> 100,> 100,> 100,> 100,> 100
CCCCCCCc1nnn(CC(I)=C(I)I)n1,0.78,,,,12.5
Cc1cncn1CC(I)=C(I)I,1.56,12.5,3.13,1.56,12.5
CC(C)(C)c1nnnn1CC#CI,3.13,25,6.25,0.78,12.5
O=[N+]([O-])c1ncnn1CC(I)=C(I)I,0.39,0.78,0.39,0.2,12.5
CC(C)(C)c1nnn(CC(I)=C(I)I)n1,0.39,> 25,,,> 25
IC#CCn1nnc(-c2ccc(C3N=NN=N3)cc2)n1,1.56,> 100,> 100,1.56,> 100
CC(C)c1nnnn1CC(I)=C(I)I,3.13,,,,

# Further compounds by falling MIC (Trichophyton benhamiae), results first:
MIC (Trichophyton benhamiae) [µg/mL],MIC (Cryptococcus neoformans) [µg/mL],MIC (Aspergillus fumigatus) [µg/mL],MIC [1] [µg/mL],MIC (Candida albicans) [µg/mL],Compound
0.39,1.56,0.78,0.78,1.56,IC#CCn1nccn1
0.39,1.56,0.39,0.78,1.56,IC#CCn1nnc(C2CC2)n1
0.39,1.56,0.78,0.78,6.25,Cc1ccnn1CC#CI
0.2,1.56,0.78,0.1,6.25,CCCCCCCc1nnnn1CC#CI
0.2,0.78,0.2,0.1,0.78,CCc1nnn(CC(I)=C(I)I)n1
0.2,0.1,0.1,0.78,0.78,O=[N+]([O-])c1ccn(CC#CI)c1
0.1,1.56,3.13,0.1,3.13,FC(F)(F)c1cccc(-c2nnn(CC#CI)n2)c1
0.1,0.39,0.78,0.1,0.78,Clc1cccc(-c2nnn(CC#CI)n2)c1
0.1,,0.78,0.1,,CCCCCc1nnn(CC#CI)n1
0.1,0.39,0.39,0.39,0.78,O=[N+]([O-])c1cccn1CC#CI
0.1,,,0.1,,CCCc1nnnn1CC(I)=C(I)I
0.1,,,0.2,,CCCCCc1nnn(CC(I)=C(I)I)n1
0.1,0.39,1.56,0.1,1.56,Clc1cc(Cl)cc(-c2nnn(CC#CI)n2)c1
0.1,25,,0.1,,COc1ccc(-c2nnn(CC#CI)n2)cc1
0.1,> 25,25,0.1,> 25,IC(I)=C(I)Cn1nnnc1Cc1ccccc1
0.1,,0.1,0.1,,CCCc1nnn(CC#CI)n1
0.1,,,0.2,,Clc1ccc(-c2nnn(CC#CI)n2)cc1
0.1,0.78,0.2,0.1,0.78,Fc1ccc(-c2nnn(CC#CI)n2)cc1
0.1,,,0.1,,CCCc1nnn(CC(I)=C(I)I)n1
